Values of other authors, collected in patent US10329260B2, “Human plasma kallikrein inhibitors” (BioCryst Pharmaceuticals, Inc., priority 2014, dated 2019).

Legend:
Details in all cases: cited from earlier work
[1] = system: patients with hereditary angioedema (HAE)
[2] = system: animal model of ischemic stroke
sepsis patients = system: sepsis patients
[3] = system: lipopolysaccharide (LPS)- or bacterial-induced sepsis in animals
[4] = system: mouse model of middle cerebral artery occlusion (MCAO)

## NC(N)=NCCC[C@@H](N)C(=O)N[C@@H](CCCN=C(N)N)C(=O)N1CCC[C@H]1C(=O)N1C[C@H](O)C[C@H]1C(=O)NCC(=O)N[C@@H](Cc1cccs1)C(=O)N[C@@H](CO)C(=O)N1Cc2ccccc2C[C@@H]1C(=O)N1[C@H](C(=O)N[C@@H](CCCN=C(N)N)C(=O)O)C[C@@H]2CCCC[C@@H]21 [Icatibant]
[1]; HAE
  efficacy in treating HAE: effective

## ecallantide [DX-88]
[2]
  brain edema: reduced
  infarct volume: reduced
  neurological deficits: reduced
[1]; patients with HAE
  edema in patients with hereditary angioedema: alleviates edema

## Cl-inhibitor
Sepsis patients
  clinical outcome in sepsis patients: Clinical improvement
[3]
  lesions: reduce
  vascular permeability in multiple organs: reduce

B1: C1-inhibitor (protein, UniProt P05155 23-500, looked up)
Plasma protease C1 inhibitor: NPNATSSSSQDPESLQDRGEGKVATTVISKMLFVEPILEVSSLPTTNSTTNSATKITANTTDEPTTQPTTEPTTQPTIQPTQPTTQLPTDSPTQPTTGSFCPGPVTLCSDLESHSTEAVLGDALVDFSLKLYHAFSAMKKVETNMAFSPFSIASLLTQVLLGAGENTKTNLESILSYPKDFTCVHQALKGFTTKGVTSVSQIFHSPDLAIRDTFVNASRTLYSSSPRVLSNNSDANLELINTWVAKNTNNKISRLLDSLPSDTRLVLLNAIYLSAKWKTTFDPKKTRMEPFHFKNSVIKVPMMNSKKYPVAHFIDQTLKAKVGQLQLSHNLSLVILVPQNLKHRLEDMEQALSPSVFKAIMEKLEMSKFQPTLLTLPRIKVTTSQDMLSIMEKLEFFDFSYDLNLCGLTEDPDLQVSAMQHQTVLELTETGVEAAAASAISVARTLLVFEVQQPFLFVLWDQQHKFPVFMGRVYDPRA
[4]
  infarct size: reduced
